Source: US9790496B2, “Microrna compounds and methods for modulating MIR-21 activity” (Regulus Therapeutics, Inc., priority 2011, dated 2017)

Assays:
miR-21 = miR-21 luciferase sensor assay in Hela cells; assay type: cell-based
Method: The compounds were assessed for miR-21 inhibitory activity in a luciferase assay. A microRNA luciferase sensor construct was engineered using pGL3-MCS2 (Promega). The construct was introduced into Hela cells to test the ability of anti-miR compounds to inhibit activity of miR-21. In this assay, miR-21 present in the Hela cells binds to its cognate site(s) in the luciferase sensor construct, and suppresses luciferase expression. When the appropriate anti-miR is introduced into the cells, it binds to miR-21 and relieves suppression of luciferase expression. Thus, in this assay anti-miRs that are effective inhibitors of miR-21 expression will cause an increase in luciferase expression.
Day 1: Hela cells (ATCC), stably transfected with a luciferase construct engineered to contain a sequence complementary of miR-21, were seeded in T-170 flasks (BD Falcon) at 3.5*10^6 cells/flask. Hela cells were grown in Dulbecco's Modified Eagle Medium with High Glucose (Invitrogen).
Day 2: Each flask of Hela cells was transfected with 0.5 ug of a phRL sensor plasmid (Promega) expressing Renilla to be used in normalization. Hela cells were transfected using 20 ul Lipofectamine 2000/flask (Invitrogen). After 4 hours of transfection, cells were washed with PBS and trypsinized. Hela cells were plated at 40 k/well in 24 well plates (BD Falcon) and left overnight.
Day 3: Hela cells were transfected with anti-miRs using Lipofectin (Invitrogen) at 2.5 ul Lipofectin/100 nM ASO/ml Opti-MEM I Reduced Serum Medium (Invitrogen) for 4 hours. After ASO transfection, Hela cells were refed with Dulbecco's Modified Eagle Medium with High Glucose (Invitrogen).
Day 4: Hela cells are passively lysed and luciferase activity measured using the Dual-Luciferase Reporter Assay System (Promega).
The luciferase assay was performed to test the ability of anti-miRs with the nucleoside patterns described herein to inhibit the activity of miR-21. Results were compared to a ‘mock’ treatment, in which cells received no anti-miR treatment. The experiment was repeated and results of two experimental replicates are shown in the following Table B, as the luciferase value normalized to beta-galactosidase activity.
The luciferase assay was performed as described herein to test the ability of anti-miRs in Table F to inhibit the activity of miR-21. Results were compared to a ‘mock’ treatment, in which cells received no anti-miR treatment. The experiment was repeated and results of two experimental replicates are shown in the following Table D, as fold change in luciferase value relative to the mock treatment.

[1] = tested on: ischemia reperfusion injury/nephrectomy (IR/Nx) model; experiment: Ischemia reperfusion injury/nephrectomy (IR/Nx) model: urinary albumin to creatinine ratio; assay type: in vivo, mouse
Source text: An ischemia reperfusion injury/nephrectomy (IR/Nx) model is created in the mouse through temporary unilateral clamping of an artery in one kidney, which leads to tubule damage, inflammation, and fibrosis, followed by removal of the second kidney at a later timepoint. In this model, the acute kidney dysfunction phase is useful to test candidate agents for the treatment of acute kidney injury (i.e. up to about the first 5 days), and the later phases of kidney dysfunction are useful to model chronic fibrosis (i.e. after about the first 5 days).
Anti-miR-21 compounds were tested in the IR/Nx model. 25109, a 6-base mismatch to miR-21, was used as a control compound ([…]; where nucleosides not followed by a subscript indicate β-deoxynucleosides; nucleosides followed by a subscript “E” indicate 2′-MOE nucleosides; nucleosides followed by a subscript “S” indicate S-cEt nucleosides; and all internucleoside linkages are phosphorothioate internucleoside linkages).
Unilateral IR was induced for a period of 30 minutes. Treatment groups were as follows: sham IR procedure; IR with PBS administered subcutaneously; IR with mismatched control 25109 administered subcutaneously at a dose of 20 mg/kg; IR with anti-miR-21 compound 25070 administered subcutaneously at a dose of 20 mg/kg; and IR with anti-miR-21 compound 25923 administered subcutaneously at a dose of 20 mg/kg. PBS or anti-miR was administered on days 2, 3, 4, and 8 following IR. On day 8, the healthy kidney was removed by nephrectomy from each animal, and animals were sacrificed on day 9. Just prior to sacrifice, urine was collected by direct bladder puncture.
Urinary albumin to creatinine ratio was measured in the urine from each mouse. […] The geometric mean of the albumin to creatinine ratio in each group of mice was 16 μgAlb/mgCr (nephrectomy-only control), 127 μgAlb/mgCr (IR/Nx, PBS control), 140 μgAlb/mgCr (IR/Nx, 25109 control), 40 μgAlb/mgCr (IR/Nx, 25070), and 31 μgAlb/mgCr (IR/Nx, 25923). Blood urea nitrogen and serum creatinine levels were similar across all IR/Nx mice, and were elevated relative to nephrectomy-only control mice (data not shown).

[2] = tested on: collagen 1A1 and collagen 3A1 expression in kidney, unilateral ureteral obstruction (UUO) model; experiment: UUO model of kidney fibrosis: kidney collagen 1A1 and collagen 3A1 expression by real-time PCR; assay type: in vivo, mice; settings: UUO; 20 mg/kg at days -5, -3, +3; kidney at day 10
Method: Unilateral ureteral obstruction (UUO) is a well-established experimental model of renal injury leading to interstitial fibrosis, and thus is used as an experimental model that is reflective of human kidney disease. UUO is induced by surgically ligating a single ureter. As fibrosis is characterized by an increase in collagen, the presence and extent of kidney fibrosis may be determined by measuring collagen content. Both collagen 1A1 (Col 1A1) and collagen 3A1 (Col 3A1) are measured to assess collagen content. Kidney fibrosis may be visualized by staining tissue samples with picro-sirius red to detect increases in collagen content. Kidney fibrosis may also be observed by measuring the amount of hydroxyproline, which is a major component of collagen, in a sample.
The cEt-containing anti-miR-21 compounds found to be active in the luciferase assay were tested in the UUO model of kidney fibrosis. 25919 comprising 2′-MOE and 2′-fluoro modifications is known to inhibit miR-21 activity in vivo and was included as a positive control. Groups of 8 animals each were treated as follows: UUO only, UUO with PBS, or UUO with anti-miR-21 compound. Relative to the day of the UUO procedure, PBS or anti-miR-21 compound was administered at days −3, −1, and +5. Anti-miR-21 compounds were administered at a dose of 20 mg/kg. As the anti-miR compounds were administered prior to the UUO procedure, this dosing regimen is considered a prophylactic treatment. At day 11, animals were sacrificed and kidney was isolated for measurement of collagen expression. Collagen expression was measured by real-time PCR and normalized first to GAPDH and then to the sham control animals. […]

[3] = Ex vivo liver homogenate stability assay (HPLC-TOF MS); settings: 24 hours, 37° C.; for ex vivo (liver) N %↓: 5 μM oligonucleotide in liver homogenate (50 mg tissue per ml), decrease of full-length compound; for ex vivo (liver) % N-1 / ex vivo (liver) % Endo: 5 μM oligonucleotide in liver homogenate; for ex vivo (liver) % N-1: compound lacking one terminal nucleoside; for ex vivo (liver) % Endo: endonuclease products
[4] = In vivo stability: compound in kidney tissue after administration to mice; settings: kidney tissue after administration to mice; for in vivo (kidney) N-1(%): compound lacking one terminal nucleoside; for in vivo (kidney) N(%): full-length compound

Sequence	inhibition of miR-21 in the luciferase assay (in words) (miR-21; Hela cells)	fold change in luciferase value relative to the mock treatment (miR-21; concentration of anti-miR compound 0.2 (unit not given))	fold change in luciferase value relative to the mock treatment (miR-21; concentration of anti-miR compound 0.6 (unit not given))	fold change in luciferase value relative to the mock treatment (miR-21; concentration of anti-miR compound 1.9 (unit not given))	fold change in luciferase value relative to the mock treatment (miR-21; concentration of anti-miR compound 5.6 (unit not given))	fold change in luciferase value relative to the mock treatment (miR-21; concentration of anti-miR compound 16.7 (unit not given))	fold change in luciferase value relative to the mock treatment (miR-21; concentration of anti-miR compound 50.0 (unit not given))	reduction in urinary albumin to creatinine ratio (in words) ([1]; s.c. 20 mg/kg on days 2, 3, 4, 8)	geometric mean of the urinary albumin to creatinine ratio ([1]; s.c. 20 mg/kg on days 2, 3, 4, 8, urine day 9, PBS control 127, nephrectomy-only 16)	reduction of collagen 1A1 expression (in words, FIG. 2A) [2]	reduction of collagen 3A1 expression (in words, FIG. 2B) [2]	ex vivo (liver) N %↓ [3]	ex vivo (liver) % N-1 [3]	ex vivo (liver) % Endo [3]	in vivo (kidney) N-1(%) [4]	in vivo (kidney) N(%) [4]
AECSATCSAGTCSTGAUSAAGCSTAS (ACATCAGTCTGATAAGCTA; modified nucleosides coded in name, code key not given here) [Compound 25923, 25070 variant: 3'-terminal nucleoside is a cEt nucleoside rather than 2'-MOE nucleoside]	demonstrated inhibition of miR-21 in a dose-dependent manner	1.06	1.01	1.10	5.18	11.34	10.81	statistically significant reductions	31 μgAlb/mgCr	reduced collagen 1A1 and collagen 3A1 expression by a statistically significant amount	reduced collagen 1A1 and collagen 3A1 expression by a statistically significant amount	–	–	–	–	–
AECSATCSAGTCSTGAUSAAGCSUSAS (ACATCAGTCTGATAAGCTA; modified nucleosides coded in name, code key not given here) [Compound 25221]	–	–	–	–	–	–	–	–	–	reduced collagen 1A1 and collagen 3A1 expression by a statistically significant amount	reduced collagen 1A1 and collagen 3A1 expression by a statistically significant amount	3%	0%	3%	4 ± 1%	76 ± 4%
AECSATCSASGTCSUSGAUSASAGCSUSAE (ACATCAGTCTGATAAGCTA; modified nucleosides coded in name, code key not given here) [Compound 25220]	–	–	–	–	–	–	–	–	–	reduced collagen 1A1 and collagen 3A1 expression by a statistically significant amount	reduced collagen 1A1 and collagen 3A1 expression by a statistically significant amount	3%	0%	3%	16 ± 6%	67 ± 16%
